± gives the expanded uncertainty stated by the source.
Assay: refractive index (other wavelength) (dimensionless)
Details: 85 kPa, Liquid, Wavelength=632.8 nm, Minimum Deviation

Compound: CCCCCCCC[n+]1ccn(C)c1.F[B-](F)(F)F [1-methyl-3-octylimidazolium tetrafluoroborate]
- refractive index (288.81 K): 1.4343 ± 0.0003
- refractive index (290.85 K): 1.4338 ± 0.0003
- refractive index (292.91 K): 1.4332 ± 0.0003
- refractive index (294.95 K): 1.4327 ± 0.0003
- refractive index (297 K): 1.4321 ± 0.0003
- refractive index (297.74 K): 1.4319 ± 0.0003
- refractive index (299.06 K): 1.4316 ± 0.0003
- refractive index (299.31 K): 1.4315 ± 0.0003
- refractive index (300.78 K): 1.4312 ± 0.0003
- refractive index (301.11 K): 1.431 ± 0.0003
- refractive index (302.3 K): 1.4307 ± 0.0003
- refractive index (303.2 K): 1.4304 ± 0.0003
- refractive index (303.84 K): 1.4303 ± 0.0003
- refractive index (305.32 K): 1.4299 ± 0.0003
- refractive index (306.84 K): 1.4295 ± 0.0003
- refractive index (308.35 K): 1.429 ± 0.0003

Compound: CCCCCCCO [heptan-1-ol]
- refractive index (297.43 K): 1.4217 ± 0.0003
- refractive index (298.87 K): 1.4211 ± 0.0003
- refractive index (300.46 K): 1.4205 ± 0.0003
- refractive index (301.93 K): 1.4199 ± 0.0003
- refractive index (303.44 K): 1.4193 ± 0.0003
- refractive index (305.08 K): 1.4187 ± 0.0003
- refractive index (306.72 K): 1.418 ± 0.0003
- refractive index (308.35 K): 1.4174 ± 0.0003

Compound: CCCC(C)O (stereo not given) [pentan-2-ol]
- refractive index (289.22 K): 1.407 ± 0.0003
- refractive index (292.33 K): 1.4058 ± 0.0003
- refractive index (295.95 K): 1.4042 ± 0.0003
- refractive index (299.54 K): 1.4027 ± 0.0003
- refractive index (302.62 K): 1.4013 ± 0.0003
- refractive index (306.2 K): 1.3997 ± 0.0003

Source: the NIST ThermoML archive (doi:10.1016/j.fluid.2015.03.015)
